target: Cannabinoid receptor 1 (Rattus norvegicus, UniProt P20272); assay: Cannabinoid receptor 1 binding affinity by measuring its ability to displace [3H]WIN-55212-2 in rat forebrain membranes; format: cell membranes, Membrane
Sequence (P20272 whole entry): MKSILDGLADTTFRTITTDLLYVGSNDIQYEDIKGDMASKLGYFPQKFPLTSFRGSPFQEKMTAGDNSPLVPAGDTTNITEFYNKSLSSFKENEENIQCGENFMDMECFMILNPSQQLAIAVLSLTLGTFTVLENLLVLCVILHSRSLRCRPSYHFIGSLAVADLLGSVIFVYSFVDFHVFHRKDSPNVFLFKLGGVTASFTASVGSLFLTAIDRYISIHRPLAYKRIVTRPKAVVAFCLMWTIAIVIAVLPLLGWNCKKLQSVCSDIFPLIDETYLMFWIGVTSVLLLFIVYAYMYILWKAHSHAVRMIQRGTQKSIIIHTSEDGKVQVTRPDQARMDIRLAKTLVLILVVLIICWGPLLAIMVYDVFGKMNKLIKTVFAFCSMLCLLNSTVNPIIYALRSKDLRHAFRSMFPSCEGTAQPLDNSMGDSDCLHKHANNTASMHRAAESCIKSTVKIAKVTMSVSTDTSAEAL

For `Cc1c(C(=O)c2cccc(Cl)c2)c2ccccc2n1CCN1CCOCC1`, which Ki is on record?
The Ki was 955 µM.

With `COc1ccc(C(=O)c2c(C)n(CCN3CCOCC3)c3c(C)cccc23)cc1` as the compound, how does the Ki read?
Its Ki is 832 µM.

Which Ki does the source give for `Cc1ccc(C(=O)c2c(C)n(CCN3CCOCC3)c3ccccc23)cc1` here?
Its Ki is 708 µM.

How did the Ki turn out when `COc1ccc(C(=O)c2c(C)n(CCN3CCOCC3)c3cc(OC)ccc23)cc1` was run?
The Ki was 871 µM.

`COc1ccc(C(=O)c2c(C)n(CCN3CCOCC3)c3cc(C)ccc23)cc1` was tested. Which Ki did it give?
Its Ki is 676 µM.

For `O=C(c1c2ccccc2cc2ccccc12)c1cn(CCN2CCOCC2)c2ccccc12`, which Ki is on record?
The Ki was 427 µM.

Reference: ChEMBL document CHEMBL1131171, “Three-dimensional quantitative structure-activity relationship study of the cannabimimetic (aminoalkyl)indoles using comparative molecular field analysis” (J Med Chem, 1998)
